Assay results taken from patent publication US10889543B2, “Fine-tune modulators of neuronal excitability for neuropsychiatric disorders” (THE BOARD OF REGENTS OF THE UNIVERSITY OF TEXAS SYSTEM, priority 2016, dated 2021).
Residues, ends and D or L forms follow the SMILES beside them. *: point of attachment. Cbz = O=C(OCc1ccccc1)*; Boc = CC(C)(C)OC(=O)*

Columns and labels:
Nav1.6 C-tail = target: T1, Nav1.6 C-tail (Homo sapiens, UniProt Q9UQD0); assay: Surface plasmon resonance spectroscopy, immobilized Nav1.6 C-tail; assay type: binding; conditions: SPR, 25° C., 10-200 μM
T1 construct: FGF14WT and Nav1.6 C-tail were immobilized; made in house
T1 sequence (Q9UQD0 1797-1980 limits assumed): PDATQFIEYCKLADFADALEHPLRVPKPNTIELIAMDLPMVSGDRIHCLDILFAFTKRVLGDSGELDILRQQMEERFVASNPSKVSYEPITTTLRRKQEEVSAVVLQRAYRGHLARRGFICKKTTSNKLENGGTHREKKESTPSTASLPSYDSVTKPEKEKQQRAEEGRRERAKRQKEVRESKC
Protocol: (§1) Surface Plasmon Resonance Spectroscopy. SPR experiments were performed on a Biacore T100 instrument (Biacore GE), and the interaction between FGF14 to Nav1.6 channel was studied at 25° C. To analyze the effects of ZL0181 on channel binding, FGF14WT and Nav1.6 C-tail were immobilized using acetate 5.5 with amine coupling kit on CM5 sensor chip, and obtaining RU 3000 and 4500 respectively. No protein was coupled to the control flow channel of the chip. ZL0181 (5-200 μM) in HBS-P+(50 μl/min) buffer ([…], 150 mM NaCl, 0.005% (v/v) P20), pH 7.4 were injected over the chip for 180 s. Next, HB S-P+ buffer without protein were passed over the chip for 180 s to monitor dissociation, and the chip surface was then regenerated with NaCl (200 mM). For each injection of ZL0181 binding to the FGF14WT or the Nav1.6, the nonspecific responses were subtracted from the responses obtained for control prior to data analysis. Maximal equilibrium responses were plotted against the concentrations of ZL0181, and the equilibrium dissociation constant (KD) was calculated from the fitted saturation binding curve. Fitted binding curves were judged to be accurate based on the distribution of the residuals (even and near zero). Graphs were plotted in GraphPad Prism 6 Software (La Jolla, Calif.).
(§2) The role of ZL0181 was further determined by surface plasmon resonance spectroscopy. […]

FGF14 = target: T2, FGF14 (Homo sapiens, UniProt Q92915); assay: Surface plasmon resonance spectroscopy, immobilized FGF14; assay type: binding; conditions: SPR, 25° C., 10-200 μM
T2 construct: made in house
T2 sequence (Q92915 64-252 isoform Q92915-2 limits assumed): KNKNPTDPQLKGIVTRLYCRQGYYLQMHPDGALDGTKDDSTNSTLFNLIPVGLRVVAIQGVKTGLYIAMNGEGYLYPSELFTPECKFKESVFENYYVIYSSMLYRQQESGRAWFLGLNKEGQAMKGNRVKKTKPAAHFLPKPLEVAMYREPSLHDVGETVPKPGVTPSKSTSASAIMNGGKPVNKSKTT
Protocol: as §1, §2

[1] = test system: nucleus accumbens medium spiny neurons; assay: Ex vivo whole-cell patch clamp of neuronal firing in brain tissue slices; assay type: cell-based, mice
Description: It is known in the art that nucleus accumbens plays a critical role in reinforcement-associated learning and in addiction-related behavior. See e.g., Woodruff-Pak, D. S., et al., Behavioral neuroscience 120:229-240 (2006); McKinney, B. C., et al., Genes, brain, and behavior 7:629-638 (2008). It has been shown that Nav1.6 channels are expressed at the nucleus accumbens medium spiny neurons. Shah, B. S., et al., The Journal of Physiology 534(Pt 3):763-776 (2001). The effect of ZL0181 on neuronal firing along with active and passive properties was tested using whole-cell patch clamp techniques in brain tissue slices. Nucleus accumbens medium spiny neurons (MNS) were treated with either DMSO (0.05×) or ZL0181 (50 μM) for one hour in an incubation chamber before being transferred to submerge experimental chamber perfused with oxygenated artificial cerebrospinal fluid for patch clamp experiments. […] For instance, at current step of 150 pA the number of spikes in DMSO treated MSNs was 18.4±1.3, n=8 versus 6.9±2.3, n=10 in ZL0181 treated MSNs; p<0.005 with Student t-test (FIG. 4B, Chart C). To test the mechanisms underlying neuronal firing reduction and related to sodium channels activity, action potential voltage and current thresholds were measured.
Coronal nucleus accumbens slices were prepared from FGF14−/− or wild type mice either treated with ZL0181 or vehicle control. Evoked action potentials were recorded in regular ASCF solution at 30-31° C. using Axopatch 200B and 700B amplifiers (Molecular Devices, Union City, Calif.). Recordings were filtered at 2 kHz and digitized at 10-20 kHz using a Digidata 1320 analog-to-digital interface and pClamp9 acquisition software (Molecular Devices, Union City, Calif.). Patch pipettes (4-6 MΩ) were prepared from borosilicate glass using a Narishige PC-10 vertical puller (Narishige International Inc., East Meadow, N.Y.). The extracellular bath solution contained (in mM) 130 NaCl, 3.5 KCl, 10 glucose, 1.5 MgCl2, 1.4 CaCl2, 23 NaHCO3, 1.25 NaH2PO4, osmolarity 300-310, pH 7.4, and the intracellular recording solution contained (in mM) 120 CH3KO3S, 10 KCl, 10 HEPES, 10 glucose, 2 MgCl2, 0.5 EGTA, 2 MgATP, and 0.5 NaGTP, osmolarity 280-290, pH 7.3. Upon forming a whole-cell connection, artificial cerebrospinal fluid containing 10 μM bicucilline (Tocris Bioscience), 30 μM NBQX (Tocris Bioscience), and 100 μM D-APV (Tocris Bioscience) was perfused into the bath solution in order to block synaptic transmission.
After seal formation and membrane rupture, action potential trains were evoked with current step protocol injections of 10 pA increment.

SMILES: CC(C)C[C@H](NC(=O)[C@H](Cc1ccccc1)NC(=O)OCc1ccccc1)C(=O)N1CCC[C@H]1C(=O)N[C@@H](CCCCNC(=O)OC(C)(C)C)C(N)=O [ZL0181, Z-Phe-Leu-Pro-Lys(Boc)-NH2] (Cbz-FLPK(Boc)-NH2)
- Kd (Nav1.6 C-tail): 212 µM
- Kd (FGF14): 13 µM
- number of spikes ([1]; 50 μM for one hour, current step of 150 pA, n=10, DMSO 18.4±1.3): 6.9±2.3
- action potential current threshold ([1]; 50 μM for one hour, n=10, DMSO 72.5±11.5): 135.8±12.5 pA
- action potential voltage threshold ([1]; 50 μM for one hour, n=10, DMSO −35.9±2.3): −27.8±2 mV
- further neuronal active and passive properties ([1]; 50 μM, compared to DMSO control): no significant changes
